Experiments:
[1] = tested on: LPS-induced IL-6 production in human whole blood; test: IL-6 human whole blood (HWB) assay, LPS-stimulated, HTRF detection; type: cell-based; conditions: 1 ng/ml LPS, 4 hours
Experimental: Compound effect on IL-6 production was determined using lipopolysaccharide (LPS)-stimulated human whole blood and an HTRF (Homogeneous Time-Resolved Fluorescence) IL-6 detection kit (Human IL6 HTRF Assay CisBio 62IL6PEC). HWB was collected by venous puncture from healthy donors, transferred to a 50 ml polypropylene tube containing sodium heparin (14.3 units per mL of HWB) and then placed in a 37° C. water bath until use. To start the assay, 80 μL of heparin-treated HWB containing 1 ng/ml of LPS (equivalent to LPS ˜EC80 with regard to stimulation of IL-6 production in HWB under these assay conditions) was added to each well of a 384-well, sterile, endotoxin-free, polypropylene plate (Greiner 781281) containing 160 nL of various concentrations of test compound (each plate also contained positive and negative control wells to define the upper and lower limits of the assay signal). The plate was then placed in a thermoshaker incubator set to 370C (Boekel 270440). The final assay concentration (FAC) of test compound ranged from 60 to 0.0006 μM and the FAC of DMSO was 0.2%. After 4 hours, the assay plate was removed from the incubator and centrifuged at 700×g for 10 minutes. 5 μL of the resulting upper plasma layer was removed from each well and diluted 1:2 with 1×Dulbecco's phosphate buffered saline (DPBS). 5 μL of this diluted plasma was then transferred to a white 384-well low volume assay plate (Greiner 784080) containing 5 μL of combined anti-IL-6-Cryptate and anti-IL-6-XL665 detection antibodies (per manufacturer's protocol). The plate was then sealed with a Top Seal (Perkin Elmer 6005185) and incubated at room temperature (RT, 20° C.). After 16-18 hrs (overnight), the HTRF assay signal was read on an Envision 2103 plate reader using a Lance Delfia Dual/Bias mirror TRF laser excitation and emission was measured at 665 nm and 615 nm respectively. The percent (%) effect was calculated for each concentration of test compound and was relative to the amount of HTRF signal produced by the positive and negative control wells contained within each assay plate. The concentrations and % effect values for test compounds were plotted versus each other with a proprietary curve fitting program using a four-parameter logistic dose response equation and the concentration of compound required for 50% effect (IC50) was determined.

BRD4 BD1 = target: T1, BRD4 BD1 (Homo sapiens, UniProt O60885); test: BRD4 BD1 Fluorescence Polarization (FP) competition binding assay; conditions: BRD4 BD1 40 nM, probe PFI-411FP 2 nM
T1 construct: His-tagged BRD4 BD1 (44-160); made in house
Experimental: Compound binding to BRD4 BD1 was assessed with a FP competition binding assay. […] All assay components were diluted in 50 mM HEPES pH 7.4 containing 0.08% bovine serum albumin (assay buffer). To start the assay, 8 μL of BRD4 BD1 was added to each well of a low volume 384-well black flat bottom microtiter plate (Corning 3820) containing 4 μl of various concentrations of test compound (each plate also contained positive and negative control wells to define the upper and lower limits of the assay signal). After addition of BRD4 BD1, the assay plate was incubated at room temperature (RT, 20° C.). After 15 minutes, 4 μL of PFI-411FP was added to each well and the assay plate was placed in the dark at RT. The final assay concentration (FAC) of PFI-411FP was 2 nM, the FAC of BRD4 BD1 was 40 nM, the FAC of test compound ranged from 120 to 0.0012 μM and the FAC of DMSO was 0.4%. After 60 min, polarization values were measured with an Envision 2103 multilabel reader (Perkin Elmer) using a Cy5 dual enhanced mirror and excitation at 620 nm and emission at 688 nm. The percent (%) effect was calculated for each concentration of test compound and was relative to the amount of polarization signal produced by the positive and negative control wells contained within each assay plate. The concentrations and % effect values for test compounds were plotted versus each other with a proprietary curve fitting program using a four-parameter logistic dose response equation and the concentration of compound required for 50% effect (IC50) was determined. The Ki values of competitive inhibitors were calculated using the equation described by Nikolovska-Coleska et al. (Development and optimization of a binding assay for the XIAP BIR3 domain using fluorescence polarization. Analytical Biochemistry (2004) 332: 261-273).

| IC50 [1] | IC50 (BRD4 BD1) | SMILES |
| --- | --- | --- |
| 846 nM | 111 nM | CCC(=O)N(C)c1ccc2nc(NCCC(=O)O)c(=O)n(C3C(CC)CCC3CC)c2n1 (stereo not drawn) [Example 13, N-{4-(2,5-diethylcyclopentyl)-6-[methyl(propanoyl)amino]-3-oxo-3,4-dihdropyrido[2,3-b]pyrazin-2-yl}-beta-alanine] |
| 4800 nM | 223 nM | COC[C@@H](c1ccccc1)n1c(=O)c(NCCC(=O)O)nc2ccc(N(C)C(C)=O)nc21 [Example 14, N-{6-[acetyl(methyl)amino]-4-[(1R)-2-methoxy-1-phenylethyl]-3-oxo-3,4-dihydropyrido[2,3-b]pyrazin-2-yl}-beta-alanine] |
| 2430 nM | 268 nM | CCC[C@H](COC)n1c(=O)c(NCCC(=O)O)nc2ccc(N(C)C(=O)CC)nc21 [Example 17, N-{4-[(2R)-1-methoxypentan-2-yl]-6-[methyl(propanoyl)amino]-3-oxo-3,4-dihydropyrido[2,3-b]pyrazin-2-yl}-beta-alanine] |
| 1460 nM | 1070 nM | CCC(=O)N(C)c1ccc2nc(NC)c(=O)n(C(COC)COC)c2n1 [Example 20, N-(4-(1,3-dimethoxypropan-2-yl)-2-(methylamino)-3-oxo-3,4-dihydropyrido[2,3-b]pyrazin-6-yl)-N-methylpropionamide] |
| 743 nM | 207 nM | CC[C@@H](c1ccccc1)n1c(=O)c(NC(C)=O)nc2ccc(N(C)C(C)=O)nc21 [Example 21, N-{2-(acetylamino)-3-oxo-4-[(1S)-1-phenylpropyl]-3,4-dihydropyrido[2,3-b]pyrazin-6-yl}-N-methylacetamide] |
| 22500 nM | 913 nM | CC[C@@H](c1ccccc1)n1c(=O)c(NCCC(=O)O)nc2ccc(N(C)C(=O)N(C)C)nc21 [Example 22, N-{6-[(dimethylcarbamoyl)(methyl)amino]-3-oxo-4-[(1S)-1-phenylpropyl]-3,4-dihydropyrido[2,3-b]pyrazin-2-yl}-beta-alanine] |
| 2300 nM | 159 nM | CCC(=O)N(C)c1ccc2nc(NCCC(=O)O)c(=O)n([C@H](c3ccccn3)C(C)C)c2n1 [Example 23, N-{6-[methyl(propanol)amino]-4-[(1S)-2-methyl-1-(pyridin-2-yl)propyl]-3-oxo-3,4-dihydropyrido[2,3-b]pyrazin-2-yl}-beta-alanine] |
| 366 nM | 149 nM | CC[C@@H](c1ccccc1)n1c(=O)c(NCCC(=O)NC)nc2ccc(N(C)C(=O)C3CCO3)nc21 (stereo partly drawn) [Example 28, N-methyl-N-(2-{[3-(methylamino)-3-oxopropyl]amino}-3-oxo-4-[(1S)-1-phenylpropyl]-3,4-dihydropyrido[2,3-b]pyrazin-6-yl)oxetane-2-carboxamide] |
| 239 nM | 102 nM | CCC(=O)N(C)c1ccc2nc(NCC(=O)NC)c(=O)n([C@@H](CC)c3ccccc3)c2n1 [Example 29, N-methyl-N-(2-{[2-(methylamino)-2-oxoethyl]amino}-3-oxo-4-[(1S)-1-phenylpropyl]-3,4-dihydropyrido[2,3-b]pyrazin-6-yl)propanamide] |
| 722 nM | 348 nM | CCC(=O)N(C)c1ccc2nc(NCC(=O)NC)c(=O)n([C@H](c3ccccn3)C(C)C)c2n1 [Example 30, N-methyl-N-(2-{[2-(methylamino)-2-oxoethyl]amino}-4-[(1S)-2-methyl-1-(pyridin-2-yl)propyl]-3-oxo-3,4-dihydropyrido[2,3-b]pyrazin-6-yl)propanamide] |
| 164 nM | 110 nM | CCC(=O)N(C)c1ccc2nc(NCCC(=O)NC)c(=O)n([C@@H](COC)c3ccccc3)c2n1 [Example 31, N^3-{4-[(1R)-2-methoxy-1-phenylethyl]-6-[methyl(propanoyl)amino]-3-oxo-3,4-dihydropyrido[2,3-b]pyrazin-2-yl}-N-methyl-beta-alaninamide] |
| 266 nM | 64.8 nM | CCC(=O)N(C)c1ccc2nc(NCCC(=O)NC)c(=O)n([C@@H](CC)c3ccccc3)c2n1 [Example 32, N-methyl-N^3-{6-[methyl(propanoyl)amino]-3-oxo-4-[(1S)-1-phenylpropyl]-3,4-dihydropyrido[2,3-b]pyrazin-2-yl}-beta-alaninamide] |
| 452 nM | 363 nM | CCC(=O)N(C)c1ccc2nc(NCCC(=O)NC)c(=O)n([C@@H](CC)c3ccccn3)c2n1 [Example 33, N-methyl-N^3-{6-[methyl(propanoyl)amino]-3-oxo-4-[(1S)-1-(pyridin-2-yl)propyl]-3,4-dihydropyrido[2,3-b]pyrazin-2-yl}-beta-alaninamide] |
| 426 nM | 167 nM | CCC(=O)N(C)c1ccc2nc(NCCC(=O)NC)c(=O)n([C@H](c3ccccn3)C(C)C)c2n1 [Example 34, N-methyl-N^3-{6-[methyl(propanoyl)amino]-4-[(1S)-2-methyl-1-(pyridin-2-yl)propyl]-3-oxo-3,4-dihydropyrido[2,3-b]pyrazin-2-yl}-beta-alaninamide] |
| 746 nM | 195 nM | COc1ccccc1[C@H](C)n1c(=O)c(NCCN2CCOCC2)nc2ccc(-c3c(C)noc3C)nc21 [Example 35, 6-(3,5-dimethyl-1,2-oxazol-4-yl)-4-[(1S)-1-(2-methoxyphenyl)ethyl]-2-{[2-(morpholin-4-yl)ethyl]amino}pyrido[2,3-b]pyrazin-3(4H)-one] |
| 823 nM | 123 nM | CC[C@@H](c1ccccc1)n1c(=O)c(NCCN2CCOCC2)nc2ccc(-c3c(C)noc3C)nc21 [Example 39, 6-(3,5-dimethyl-1,2-oxazol-4-yl)-2-{[2-(morpholin-4-yl)ethyl]amino}-4-[(1S)-1-phenylpropyl]pyrido[2,3-b]pyrazin-3(4H)-one] |
| 1390 nM | 225 nM | Cc1noc(C)c1-c1ccc2nc(NCCN3CCOCC3)c(=O)n([C@@H](C)c3ccccc3)c2n1 [Example 40, 6-(3,5-dimethyl-1,2-oxazol-4-yl)-2-{[2-(morpholin-4-yl)ethyl]amino}-4-[(1S)-1-phenylethyl]pyrido[2,3-b]pyrazin-3(4H)-one] |
| 35500 nM | 585 nM | Cc1noc(C)c1-c1ccc2nc(NCC(=O)O)c(=O)n([C@@H](C)c3ccccc3)c2n1 [Example 41, N-{6-(3,5-dimethyl-1,2-oxazol-4-yl)-3-oxo-4-[(1S)-1-phenylethyl]-3,4-dihydropyrido[2,3-b]pyrazin-2-yl}glycine] |
| 6160 nM | 146 nM | Cc1noc(C)c1-c1ccc2nc(NCCC(=O)O)c(=O)n([C@@H](C)c3ccccc3)c2n1 [Example 42, N-{6-(3,5-dimethyl-1,2-oxazol-4-yl)-3-oxo-4-[(1S)-1-phenylethyl]-3,4-dihydropyrido[2,3-b]pyrazin-2-yl}-beta-alanine] |
| 8350 nM | 576 nM | COc1ccccc1[C@H](C)n1c(=O)c(NCCC(=O)O)nc2ccc(-c3c(C)noc3C)nc21 [Example 43, N-{6-(3,5-dimethyl-1,2-oxazol-4-yl)-4-[(1S)-1-(2-methoxyphenyl)ethyl]-3-oxo-3,4-dihydropyrido[2,3-b]pyrazin-2-yl}-beta-alanine] |
| 2560 nM | 89.8 nM | CC[C@@H](c1ccccc1)n1c(=O)c(NCCC(=O)O)nc2ccc(-c3c(C)noc3C)nc21 [Example 44, N-{6-(3,5-dimethyl-1,2-oxazol-4-yl)-3-oxo-4-[(1S)-1-phenylpropyl]-3,4-dihydropyrido[2,3-b]pyrazin-2-yl}-beta-alanine] |

— patent publication US20160368919A1, “NOVEL PYRIDINE PYRAZINONES AS BET-FAMILY BROMODOMAIN INHIBITORS” (Pfizer Inc., priority 2015, published 2016)
